Laboratory results reported in US9216968B2, “Heterocyclic derivative and pharmaceutical drug” (NIPPON SHINYAKU CO., LTD., priority 2011, dated 2015).
Where a name gives a salt, the structure may show the parent alone.

What was measured:
A549 cells = test: Inhibition of PGE2 production in A549 cell (IL-1β stimulated); assay type: cell-based, human; details: Homo sapiens, A549, 24 h, IL-1β 5 ng/well, PGE2 in culture medium
How it was run: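 After IL-1β (5 ng/well) stimulation for 24 h at 37 °C, following a 60-min compound pretreatment in RPMI with 3% FBS, medium PGE2 (HTRF) and PGF2α (EIA) from human A549 cells were quantified. 100% activity set as IL-1β-induced minus basal production; IC50 calculated.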

human mPGES-1 = human mPGES-1 (Homo sapiens (Human), UniProt O14684); test: mPGES-1 inhibiting activity (microsome fractions, PGE2 by HTRF); assay type: biochemical; details: microsomes from CHO-K1 cells transfected with human mPGES-1; PGH2 1 μM, 4° C., 60 seconds; read-out: mPGES-1 Inhibition IC50
human mPGES-1, sequence (O14684 whole entry): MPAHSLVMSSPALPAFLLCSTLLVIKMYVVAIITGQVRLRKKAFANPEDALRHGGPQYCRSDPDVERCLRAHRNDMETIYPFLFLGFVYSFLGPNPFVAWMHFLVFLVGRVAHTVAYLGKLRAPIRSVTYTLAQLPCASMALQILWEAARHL
How it was run: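 PGE2 formation read by HTRF after 60 s at 4 °C with 1 μM PGH2 substrate, following 20 min compound preincubation (1% DMSO) with human mPGES-1 microsomes from transfected CHO-K1 cells. Buffer: potassium phosphate, reduced glutathione, pH 7.4; IC50 from activity relative to enzyme-free blank.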

SMILES | IC50 (A549 cells) | IC50 (human mPGES-1)
Cc1c(Cl)cccc1NC(=O)c1cc(NC(=O)c2c(Cl)cccc2Cl)cc2[nH]c(N(C)C)nc12 [Example 183, N-(3-Chloro-2-methylphenyl)-6-{[(2,6-dichlorophenyl)carbonyl]amino}-2-(dimethylamino)-1H-benzimidazole-4-carboxamide hydrochloride] | 6.1 nM | 1.9 nM
Cc1c(Cl)cccc1NC(=O)c1cc(NC(=O)c2ccc(Cl)cc2Cl)cc2[nH]c(N(C)C)nc12 [Example 184, N-(3-Chloro-2-methylphenyl)-6-{[(2,4-dichlorophenyl)carbonyl]amino}-2-(dimethylamino)-1H-benzimidazole-4-carboxamide hydrochloride] | 138 nM | 1 nM
Cc1c(Cl)cccc1NC(=O)c1cc(NC(=O)c2cc(Cl)ccc2Cl)cc2[nH]c(N(C)C)nc12 [Example 185, N-(3-Chloro-2-methylphenyl)-6-{[(2,5-dichlorophenyl)carbonyl]amino}-2-(dimethylamino)-1H-benzimidazole-4-carboxamide hydrochloride] | 5.6 nM | 4.5 nM
Cc1c(Cl)cccc1NC(=O)c1cc(NC(=O)c2c(F)cccc2Br)cc2[nH]c(N(C)C)nc12 [Example 186, 6-{[(2-Bromo-6-fluorophenyl)carbonyl]amino}-N-(3-chloro-2-methylphenyl)-2-(dimethylamino)-1H-benzimidazole-4-carboxamide hydrochloride] | 13.9 nM | 6.1 nM
Cc1c(Cl)cccc1NC(=O)c1cc(NC(=O)c2c(Cl)cccc2Br)cc2[nH]c(N(C)C)nc12 [Example 187, 6-{[(2-Bromo-6-chlorophenyl)carbonyl]amino}-N-(3-chloro-2-methylphenyl)-2-(dimethylamino)-1H-benzimidazole-4-carboxamide hydrochloride] | 12.7 nM | 3.6 nM
Cc1c(Cl)cccc1NC(=O)c1cc(NC(=O)c2cc(C#CC3CC3)ccc2Cl)cc2[nH]c(N(C)C)nc12 [Example 188, 6-({[2-Chloro-5-(cyclopropylethynyl)phenyl]carbonyl}amino)-N-(3-chloro-2-methylphenyl)-2-(dimethylamino)-1H-benzimidazole-4-carboxamide hydrochloride] | 1020 nM | 457 nM
Cc1c(Cl)cccc1NC(=O)c1cc(NC(=O)c2cc(Cl)ccc2Cl)cc2[nH]c(NCC(C)(C)CO)nc12 [Example 189, N-(3-Chloro-2-methylphenyl)-6-{[(2,5-dichlorophenyl)carbonyl]amino}-2-[(3-hydroxy-2,2-dimethylpropyl)amino]-1H-benzimidazole-4-carboxamide hydrochloride] | 24.5 nM | 1.4 nM
COCC(C)(C)CNc1nc2c(C(=O)Nc3cccc(Cl)c3C)cc(NC(=O)c3cc(Cl)ccc3Cl)cc2[nH]1 [Example 190, N-(3-Chloro-2-methylphenyl)-6-{[(2,5-dichlorophenyl)carbonyl]amino}-2-[(3-methoxy-2,2-dimethylpropyl)amino]-1H-benzimidazole-4-carboxamide hydrochloride] | 7 nM | 0.1 nM
Cc1c(Cl)cccc1NC(=O)c1cc(NC(=O)c2cc(Cl)ccc2Cl)cc2[nH]c(NCC(C)(C)O)nc12 [Example 191, N-(3-Chloro-2-methylphenyl)-6-{[(2,5-dichlorophenyl)carbonyl]amino}-2-[(2-hydroxy-2-methylpropyl)amino]-1H-benzimidazole-4-carboxamide hydrochloride] | 49.5 nM | 3.9 nM
COC(C)(C)CNc1nc2c(C(=O)Nc3cccc(Cl)c3C)cc(NC(=O)c3cc(Cl)ccc3Cl)cc2[nH]1 [Example 192, N-(3-Chloro-2-methylphenyl)-6-{[(2,5-dichlorophenyl)carbonyl]amino}-2-[(2-methoxy-2-methylpropyl)amino]-1H-benzimidazole-4-carboxamide hydrochloride] | 18.1 nM | 9.9 nM
Cc1c(Cl)cccc1NC(=O)c1cc(NC(=O)c2cc(Cl)ccc2Cl)cc2[nH]c(NCCOC(C)C)nc12 [Example 193, N-(3-Chloro-2-methylphenyl)-6-{[(2,5-dichlorophenyl)carbonyl]amino}-2-{[2-(propan-2-yloxy)ethyl]amino}-1H-benzimidazole-4-carboxamide hydrochloride] | 18.9 nM | 0.4 nM
Cc1c(Cl)cccc1NC(=O)c1cc(NC(=O)c2c(F)cccc2Cl)cc2[nH]c(NCCOC(C)C)nc12 [Example 194, 6-{[(2-Chloro-6-fluorophenyl)carbonyl]amino}-N-(3-chloro-2-methylphenyl)-2-{[2-(propan-2-yloxy)ethyl]amino}-1H-benzimidazole-4-carboxamide hydrochloride] | 33.8 nM | 0.4 nM
Cc1c(Cl)cccc1NC(=O)c1cc(NC(=O)c2c(F)cccc2Cl)cc2[nH]c(NCCOC(C)(C)C)nc12 [Example 195, 2-[(2-tert-Butoxyethyl)amino]-6-{[(2-chloro-6-fluorophenyl)carbonyl]amino}-N-(3-chloro-2-methylphenyl)-1H-benzimidazole-4-carboxamide hydrochloride] | 17.2 nM | 2.3 nM
COCC(C)(C)CNc1nc2c(C(=O)Nc3cccc(Cl)c3C)cc(NC(=O)c3c(F)cccc3Cl)cc2[nH]1 [Example 196, 6-{[(2-Chloro-6-fluorophenyl)carbonyl]amino}-N-(3-chloro-2-methylphenyl)-2-[(3-methoxy-2,2-dimethylpropyl)amino]-1H-benzimidazole-4-carboxamide hydrochloride] | 35.9 nM | 6.5 nM
COC(C)(C)CNc1nc2c(C(=O)Nc3cccc(Cl)c3C)cc(NC(=O)c3c(F)cccc3Cl)cc2[nH]1 [Example 197, 6-{[(2-Chloro-6-fluorophenyl)carbonyl]amino}-N-(3-chloro-2-methylphenyl)-2-[(2-methoxy-2-methylpropyl)amino]-1H-benzimidazole-4-carboxamide hydrochloride] | 34.4 nM | 5.2 nM
Cc1c(Cl)cccc1NC(=O)c1cc(NC(=O)c2c(F)cccc2Cl)cc2[nH]c(NC[C@@H]3CCCO3)nc12 [Example 198, 6-{[(2-Chloro-6-fluorophenyl)-carbonyl]amino}-N-(3-chloro-2-methylphenyl)-2-{[(2S)-tetrahydrofuran-2-ylmethyl]amino}-1H-benzimidazole-4-carboxamide hydrochloride] | 34.1 nM | 6 nM

The remaining lines, values ahead:

IC50 (A549 cells) | IC50 (human mPGES-1) | SMILES
43.2 nM | 9.7 nM | Cc1c(Cl)cccc1NC(=O)c1cc(NC(=O)c2c(F)cccc2Cl)cc2[nH]c(NC[C@H]3CCCO3)nc12 [Example 199, 6-{[(2-Chloro-6-fluorophenyl)-carbonyl]amino}-N-(3-chloro-2-methylphenyl)-2-{[(2R)-tetrahydrofuran-2-ylmethyl]amino}-1H-benzimidazole-4-carboxamide hydrochloride]
108 nM | 4.6 nM | Cc1c(Cl)cccc1NC(=O)c1cc(NC(=O)c2c(F)cccc2Cl)cc2[nH]c(NCC(C)(C)CO)nc12 [Example 200, 6-{[(2-Chloro-6-fluorophenyl)carbonyl]amino}-N-(3-chloro-2-methylphenyl)-2-[(3-hydroxy-2,2-dimethylpropyl)amino]-1H-benzimidazole-4-carboxamide hydrochloride]
253 nM | 0.5 nM | Cc1c(Cl)cccc1NC(=O)c1cc(NC(=O)c2c(F)cccc2Cl)cc2[nH]c(N[C@H](CO)C(C)C)nc12 [Example 201, 6-{[(2-Chloro-6-fluorophenyl)-carbonyl]amino}-N-(3-chloro-2-methylphenyl)-2-{[(25)-1-hydroxy-3-methylbutan-2-yl]amino}-1H-benzimidazole-4-carboxamide hydrochloride]
5.9 nM | 4.9 nM | Cc1ccc(NC(=O)c2cc(NC(=O)c3ccccc3C(F)(F)F)cc3[nH]c(N(C)C)nc23)cc1Cl [Example 202, N-(3-Chloro-4-methylphenyl)-2-(dimethylamino)-6-({[2-(trifluoromethyl)phenyl]carbonyl}amino)-1H-benzimidazole-4-carboxamide hydrochloride]
5.2 nM | 1.4 nM | CN(C)c1nc2c(C(=O)Nc3ccc(C(C)(C)C)cc3)cc(NC(=O)c3ccccc3C(F)(F)F)cc2[nH]1 [Example 203, N-(4-tert-Butylphenyl)-2-(dimethylamino)-6-({[2-(trifluoromethyl)phenyl]carbonyl}amino)-1H-benzimidazole-4-carboxamide hydrochloride]
12.2 nM | 1 nM | CN(C)c1nc2c(C(=O)Nc3ccc4c(c3)CCC4)cc(NC(=O)c3ccccc3C(F)(F)F)cc2[nH]1 [Example 204, N-(2,3-Dihydro-1H-inden-5-yl)-2-(dimethylamino)-6-({[2-(trifluoromethyl)phenyl]carbonyl}amino)-1H-benzimidazole-4-carb oxamide hydrochloride]
25.6 nM | 3.7 nM | Cc1ccc(NC(=O)c2cc(NC(=O)c3c(F)cccc3Cl)cc3[nH]c(N(C)C)nc23)cc1Cl [Example 205, 6-{[(2-Chloro-6-fluorophenyl)carbonyl]amino}-N-(3-chloro-4-methylphenyl)-2-(dimethylamino)-1H-benzimidazole-4-carboxamide hydrochloride]
74.5 nM | 3.2 nM | Cc1ccc(NC(=O)c2cc(NC(=O)c3c(Cl)cccc3Cl)cc3[nH]c(N(C)C)nc23)cc1Cl [Example 206, N-(3-Chloro-4-methylphenyl)-6-{[(2,6-dichlorophenyl)carbonyl]amino}-2-(dimethylamino)-1H-benzimidazole-4-carboxamide hydrochloride]
